Data: the supplement of paper PMC3974653
Structures can show the parent of a compound that is named as a salt.

System: MTT (mouse pheochromocytoma)
Assay: IC50 of cell viability (ATP content)
Conditions: (24 or 48 h)
Procedure, shortened: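 Cells of the MTT mouse pheochromocytoma line, 5 µl per well at 200,000 cells/ml, were grown overnight at 37°C, 5% CO2 in white 1536-well plates with DMEM, 5% FBS and 1% horse serum. Pintool transfer then delivered 23 nl of library compound in DMSO, giving 8 final concentrations from 0.5 nM to 46 µM, for an exposure of 24 or 48 hrs. Luminescence from CellTiter-Glo was read after 15 minutes and referenced to positive-control wells (100%) and DMSO wells (0%). IC50 was calculated with a four-parameter logistic fit.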

| SMILES | IC50 of cell viability [µM] |
| --- | --- |
| CC(=O)Oc1ccc(C2(c3ccc(OC(C)=O)cc3)Oc3ccccc3NC2=O)cc1 [Bisoxatin Acetate] | > 46 |
| C[C@]12CC[C@@H]3c4ccc(OC(=O)N(CCCl)CCCl)cc4CC[C@@H]3[C@H]1CC[C@@H]2OP(=O)(O)O [ESTRAMUSTINE PHOSPHATE] | > 46 |
| CN1CCN2c3ncccc3Cc3ccccc3C2C1 (stereo unspecified) [Mirtazapine] | > 46 |
| CC(=O)OCC1=C(C(=O)[O-])N2C(=O)C(NC(=O)Cc3ccccc3)C2SC1 (stereo unspecified) [Cefaloram] | > 46 |
| COc1cc(CC(C)N)cc(OC)c1OC (stereo unspecified) [(?)-3,4,5-Trimethoxyamphetamine] | > 46 |
| CCOC(CN1CCN(CC(C)C(=O)c2ccccc2)CC1)c1ccccc1 (stereo unspecified) [EPRAZINONE HYDROCHLORIDE] | > 46 |
| CCOc1ccc2nc([S+](N)(=O)[O-])sc2c1 [ETHOXZOLAMIDE] | > 46 |
| CCC(C)C1NC(=O)C(CCNCS(=O)(=O)[O-])NC(=O)C(NC(=O)C(CCNCS(=O)(=O)[O-])NC(=O)C(NC(=O)C(CCNCS(=O)(=O)[O-])NC(=O)CCCCC(C)C)C(C)O)CCNC(=O)C(C(C)O)NC(=O)C(CCNCS(=O)(=O)[O-])NC(=O)C(CCNCS(=O)(=O)[O-])NC(=O)C(C(C)CC)NC1=O.[Na+].[Na+].[Na+].[Na+].[Na+] (stereo unspecified) [COLISTIMETHATE SODIUM] | > 46 |
| NC/1=N/C(=O)N(/C=C1)[C@H]2CC[C@@H](CO)O2 [2',3'-Dideoxycytidine] | > 46 |
| OC1\C=C/C2[C@H]3CC4=C5C(=C(O)C=C4)OC1[C@@]25CCN3 (stereo partly specified) [N-Normorphine] | > 46 |
| CC[C@H]1C[C@H]2[C@@H]3CCC/4=C/C(=O)CC[C@@H]4[C@H]3CC[C@]2(C)[C@H]1O [Oxendolone] | > 46 |
| N#CC(C#N)=Cc1cc(O)c(O)c(O)c1 [Tyrphostin 25] | > 46 |
| CC(C)(Oc1ccc(Cl)cc1)C(=O)O [Clofibric_acid] | > 46 |
| COc1ccc(C(CN(C)C)C2(O)CCCCC2)cc1 (stereo unspecified) [VENLAFAXINE] | > 46 |
| CCCn1c(=O)[nH]c(=O)c2[nH]cnc21 [3-n-PROPYLXANTHINE] | > 46 |
| Cc1onc(-c2c(Cl)cccc2Cl)c1C(=O)N[C@@H]1C(=O)N2[C@@H]1SC(C)(C)[C@@H]2C(=O)[O-] [Dicloxacillin sodium salt monohydrate] | > 46 |
| Nc1nnnn1-c1ccccc1 [Fenamol] | > 46 |
| C[N+]1(C)CCC(OC(=O)C(O)(c2ccccc2)C2CCCC2)C1 (stereo unspecified) [Glycopyrrolate bromide] | > 46 |
| CC(=O)Nc1ccc(OC(C)=O)cc1 [Diacetamate] | > 46 |
| O=C(CCCN1CCN(c2ccc(F)cc2)CC1)NC1c2ccccc2CSc2ccccc21 (stereo unspecified) [MONATEPIL MALEATE] | > 46 |
| Cc1ccccc1CNc1ncnc2c1ncn2C1OC(CO)C(O)C1O (stereo unspecified) [Metrifudil] | > 46 |
| OC(CCCN1CCCCC1)(c1ccccc1)c1ccccc1 [Diphenidol] | > 46 |
| CCC(=O)O[C@@H]1CC[C@@H]2[C@@H]3CC\C4=C\C(=O)CC[C@@]4(C)[C@H]3CC[C@@]12C [Testosterone propionate] | > 46 |
| CN(C)CCC=C1c2ccccc2CCc2ccccc21 [Amitriptyline] | > 46 |
| C[C@@H]1CC2C3CCC4=CC(=O)C=C[C@]4(C)[C@@]3(F)[C@@H](O)C[C@]2(C)[C@@]1(O)C(=O)COC(=O)c1cccc(S(=O)(=O)[O-])c1 (stereo partly specified) [DEXAMETHASONE METASULFOBENZOATE SODIUM] | > 46 |

| SMILES | IC50 of cell viability [µM] |
| --- | --- |
| O=C1Nc2ccc(Cl)cc2C(C#CC2CC2)(C(F)(F)F)O1 (stereo unspecified) [EFAVIRENZ] | > 46 |
| CC/C=C(/C(=O)N[C@@H]1C(=O)N2C(C(=O)OCOC(=O)C(C)(C)C)=C(COC(N)=O)CS[C@H]12)c1csc(N)n1 [Cefcapene pivoxil HCl] | > 46 |
| CCN(CC)C(=O)/C(C#N)=C/c1cc(O)c(O)c([N+](=O)[O-])c1 [Entacapone] | > 46 |
| CCCSP(=O)(OCC)SCCC [Ethoprop] | > 46 |
| Nc1nc(N)nc(NC2CC2)n1 [CYROMAZINUM] | > 46 |
| CC(C)CCC[C@@H](C)[C@H]1CC[C@H]2[C@@H]3CC[C@@H]4C[C@H](O)CC[C@]4(C)[C@H]3CC[C@]12C [EPIDIHYDROCHOLESTERIN] | > 46 |
| Cc1cc(-c2ccccc2)nnc1NCCN1CCOCC1.Cl.Cl [MINAPRINE HYDROCHLORIDE] | > 46 |
| OCCOc1ccccc1 [2-Phenoxyethanol] | > 46 |
| O=C(O)CN(CCN(CC(=O)O)CC(=O)O)CC(=O)O [EDETATE CALCIUM DISODIUM] | > 46 |
| N#Cc1ccc(C(c2ccc(C#N)cc2)n2cncn2)cc1 [Letrozole] | > 46 |
| CC1(C)Oc2ccc(C#N)cc2[C@@H](N2CCCC2=O)[C@@H]1O [Levcromakalim] | > 46 |
| O=C(NC[C@@H](O)CO)c1c(I)c(C(=O)NC[C@@H](O)CO)c(I)c(N(CCO)C(=O)CO)c1I [Ioversol] | > 46 |
| CC1\N=C(N)/OC1C2=CC=CC=C2 (stereo not drawn) [(?)-cis-(4RS,5SR)-2-Amino-4-methyl-5-phenyl-2-oxazoline] | > 46 |
| CNC(C)[C@@H](O)c1ccc(O)cc1 (stereo partly specified) [P-HYDROXYEPHEDRINE HYDROCHLORIDE] | > 46 |
| OCC(O)[C@H]1O[C@@H]2O[C@H](C(Cl)(Cl)Cl)O[C@@H]2[C@H]1O (stereo partly specified) [CHLORALOSUM] | > 46 |
| CC(=O)OCC(=O)[C@@H]1CC[C@@H]2[C@H]3CC[C@H]4C[C@@H](O)CC[C@]4(C)[C@@H]3C(=O)C[C@]21C [Alfadolone acetate] | > 46 |
| OC(Cn1cncn1)(Cn1cncn1)c1ccc(F)cc1F [FLUCONAZOLE] | > 46 |
| CN1C(=O)NC(=O)C(C)(C2=CCCCC2)C1=O (stereo unspecified) [Hexobarbital] | > 46 |
| CC1=C(C(=O)O)N2C(=O)[C@@H](NC(=O)[C@H](N)C3=CCC=CC3)[C@H]2SC1 [Cephradine] | > 46 |
| CCCCCc1ccc(C)cc1O [AMYLMETACRESOL] | > 46 |
| CC1=C(C(=O)N[C@H]2[C@@H]3SC(C)(C)[C@H]([N@@]3C2=O)C(O)=O)C(=NO1)C4=C(Cl)C=CC=C4F [Floxacillin] | > 46 |
| COc1ccccc1Oc1c(N[S+](=O)([O-])c2ccc(C(C)(C)C)cc2)nc(-c2ncccn2)nc1OCCO [BOSENTAN] | > 46 |
| CCOC(=O)NC(O)C(Cl)(Cl)Cl (stereo unspecified) [Carbocloral] | > 46 |
| CCC(C)C(=O)OC1CC/C=C2/C=C\C(C)C(CCC3CC(O)CC(=O)O3)[C@H]12 (stereo partly specified) [COMPACTIN] | > 46 |

Other lines, results leading:

| IC50 of cell viability [µM] | SMILES |
| --- | --- |
| > 46 | CCCCC(=O)[O-] [Valeric acid] |
| > 46 | C[C@H]1C[S+](=O)([O-])CCN1/N=C\c1ccc([N+](=O)[O-])o1 [Nifurtimox] |
| > 46 | O=C(O)c1ccccc1C(=O)Nc1ccc([S+](=O)([O-])Nc2nccs2)cc1 [PHTHALYLSULFATHIAZOLE] |
| > 46 | N=C(N)NC(=N)NCCc1ccccc1 [Phenformin hydrochloride] |
| > 46 | O=C(O)CC(O)CC(O)/C=C/c1c(C2CC2)nc2ccccc2c1-c1ccc(F)cc1 (stereo unspecified) [Pitavastatin] |
| > 46 | NC(=O)c1ccccc1O [SALICYLAMIDE] |
| > 46 | O=C(O)c1cccnc1Nc1cccc(C(F)(F)F)c1 [NIFLUMIC ACID] |
| > 46 | N=C(N)n1cccn1 [PRAXADINUM] |
| > 46 | CCO[C@@H](Cc1ccc(OCCc2ccc(O[S+](C)(=O)[O-])cc2)cc1)C(=O)O [Tesaglitazar] |
| > 46 | C[S+](=O)([O-])c1ccc([C@@H](O)[C@@H](COC(=O)CN)NC(=O)C(Cl)Cl)cc1 [THIAMPHENICOL AMINOACETATE HYDROCHLORIDE] |
| > 46 | CCCCCCCCCCCCOS(=O)(=O)[O-] [Sodium dodecyl sulfate] |
| > 46 | O=C(OCC1(COC(=O)c2cccnc2)CCCC(COC(=O)c2cccnc2)(COC(=O)c2cccnc2)C1O)c1cccnc1 [Nicomolol] |
| > 46 | CNc1c2c(nn1C)CCCC2 [TETRIDAMINUM] |
| > 46 | Clc1ccc(CS[C@@H](Cn2ccnc2)c2ccc(Cl)cc2Cl)cc1 [Sulconazole nitrate] |
| > 46 | Cl.OC(CCN1CCCCC1)(c1ccccc1)C1CCCCC1 (stereo unspecified) [TRIHEXYPHENIDYL HYDROCHLORIDE] |
| > 46 | COC[C@@H](c1ccc(C(F)(F)F)cc1)N1CCN(C2(C)CCN(C(=O)c3c(C)ncnc3C)CC2)C[C@@H]1C [vicriviroc maleate] |
| > 46 | CN[C@H]1[C@@H](O)[C@@H](OC[C@@]1(C)O)O[C@@H]2[C@H](N)C[C@H](N)[C@H](O[C@@H]3O\C(=C/C[C@H]3N)CN)[C@H]2O [Sisomicin sulfate] |
| > 46 | C=CC(C)(O)CC/C=C(\C)CCC=C(C)C (stereo unspecified) [NEROLIDOL] |
| > 46 | N#Cc1c(N(CC(=O)[O-])CC(=O)[O-])sc(C(=O)[O-])c1CC(=O)[O-].O.O.O.O.O.O.O.[Sr+2].[Sr+2] [STRONTIUM RANELATE] |
| > 46 | Cc1ccc(C(=O)[C@H](C)CN2CCCCC2)cc1 [Tolperisone HCl] |
| > 46 | COc1ccc2c(C(=S)N(C)CC(=O)O)cccc2c1C(F)(F)F [Tolrestat] |
| > 46 | CCCCOC(=O)C(=O)Nc1cccc(-c2nnn[nH]2)c1 [Tazanolast] |
